Assay results published in patent US7727553B2, “Oral preparations with favorable disintegration characteristics” (Dainippon Sumitomo Pharma Co., Ltd., priority 2000, dated 2010).

Assay: physchem
Settings: for solubility at 30 min: 22.5 °C, thermodynamic from solid
Procedure: According to the method disclosed in the Pharmacopoeia of Japan, the solubility (μg/ml) of Compound 1 was measured when treated for 30 minutes under the following conditions. • (1) Conditions for measurement of solubility:
Solvent: Diluted McIlvaine buffer

Cl.O=C1[C@@H]2[C@H]3CC[C@H](C3)[C@@H]2C(=O)N1C[C@@H]1CCCC[C@H]1CN1CCN(c2nsc3ccccc23)CC1 [Compound 1, N-[4-[4-(1,2-benzisothiazol-3-yl)-1-piperazinyl]-(2R, 3R)-2,3-tetramethylenebutyl]-(1′R, 2′S, 3′R, 4′S)-2,3-bicyclo[2.2.1]heptanedicarboximide hydrochloride]
solubility of Compound 1 (in words): quite low
solubility at 30 min (pH 3, aqueous buffer): > 20 µg/mL
solubility at 30 min (pH 4, aqueous buffer): 8.2 µg/mL
solubility at 30 min (pH 5, aqueous buffer): 0.7 µg/mL
